This is an account of results in patent US9241996B2, “Photochemical internalisation of kinase inhibitors” (PCI BIOTECH AS, priority 2008, dated 2016).

Like-named read-outs stand apart in the source and are kept apart here.

Data set [1] has as its system A-431 human skin carcinoma. Description: Growth inhibition (Coulter counting, survival fraction) after PDT with TPPS2a, AG1478 and the combination (Example 3). The class given is cell-based. As to conditions: for synergy/antagonism value F: p=0.05. As to the method: The studies were performed using the EGFR positive cell line A-431 human skin carcinoma (ATCC, CRL 1555). The A-431 cells were subcultured two or three times a week in DMEM (Bio Whitaker Europe, Velviers, Belgium). Media were supplied with 10% fetal calf serum (FCS) (GIBCO BRL, Paisley, UK), 100 U/ml penicillin, 100 U/ml streptomycin (Sigma, St. Loice, MO) and 2 mM glutamine (Bio Whittaker, Velviers, Belgium). The cells were grown and incubated in 75 cm^2 flasks (Nunc, Roskilde, Denmark) at 37° C. in a humidified atmosphere containing 5% CO2.
(§1) A-431 cells were seeded out and left to fasten for 6 hrs, or longer as described for the different combination treatment regimes with Tyrphostin AG1478, before an 18 hour incubation with 0.1 ug/ml LumiTrans (TPPS2a, meso-tetraphenylporphine with two sulfonate groups on adjacent phenyl rings) (PCI Biotech AS, Oslo, Norway). The cells were then washed twice with drug free medium and chased in new drug free medium for 4 hrs to wash the TPPS2a off the plasma membrane. Cells were then exposed to blue light from LumiSource (PCT Biotech AS) consisting of 4 light tubes delivering light with λ=[…], maximum at 435 nm and irradiance=13.5 mW/cm^2 at different doses as indicated in the figures.
Growth inhibition measurements were carried out after incubation of the cells for 72 hrs with different concentrations of AG1478 directly after exposure to light. Cell counting was performed with an in-house made Coulter counter after trypsination and resuspension in PBS. Two parallels of each sample were made, and the experiments were reproduced twice at least.
For each experiment the survival fraction (SF) of cells was found by dividing the number of treated cells by the average number of untreated cells in the two parallels. The expected additive effect was computed as SFadd=SFPDT×SFTKI where SFPDT and SFTKI refers to the observed effect after PDT or TKI treatment alone. SFadd was then compared to the observed effect of the combined treatment, SFcomb, using the synergy/antagonism value F F=log SFadd/log SFComb=log SFTKI+log SFPDT−log SFcorab
Antagonistic effects would result in negative F values. Significant deviations of F from zero were established through t-tests.

The target of another data set is T1, EGFR (Homo sapiens, UniProt P00533).
T1 construct: time dependent effects on total and phosphorylated EGFR after PDT˜LD50, AG1478 (TKI)˜LD50 and the combination treatment in A-431 cells; endogenous in cells; host or cells: A-431 human skin carcinoma cells (ATCC, CRL 1555)
T1 sequence (P00533 25-1210): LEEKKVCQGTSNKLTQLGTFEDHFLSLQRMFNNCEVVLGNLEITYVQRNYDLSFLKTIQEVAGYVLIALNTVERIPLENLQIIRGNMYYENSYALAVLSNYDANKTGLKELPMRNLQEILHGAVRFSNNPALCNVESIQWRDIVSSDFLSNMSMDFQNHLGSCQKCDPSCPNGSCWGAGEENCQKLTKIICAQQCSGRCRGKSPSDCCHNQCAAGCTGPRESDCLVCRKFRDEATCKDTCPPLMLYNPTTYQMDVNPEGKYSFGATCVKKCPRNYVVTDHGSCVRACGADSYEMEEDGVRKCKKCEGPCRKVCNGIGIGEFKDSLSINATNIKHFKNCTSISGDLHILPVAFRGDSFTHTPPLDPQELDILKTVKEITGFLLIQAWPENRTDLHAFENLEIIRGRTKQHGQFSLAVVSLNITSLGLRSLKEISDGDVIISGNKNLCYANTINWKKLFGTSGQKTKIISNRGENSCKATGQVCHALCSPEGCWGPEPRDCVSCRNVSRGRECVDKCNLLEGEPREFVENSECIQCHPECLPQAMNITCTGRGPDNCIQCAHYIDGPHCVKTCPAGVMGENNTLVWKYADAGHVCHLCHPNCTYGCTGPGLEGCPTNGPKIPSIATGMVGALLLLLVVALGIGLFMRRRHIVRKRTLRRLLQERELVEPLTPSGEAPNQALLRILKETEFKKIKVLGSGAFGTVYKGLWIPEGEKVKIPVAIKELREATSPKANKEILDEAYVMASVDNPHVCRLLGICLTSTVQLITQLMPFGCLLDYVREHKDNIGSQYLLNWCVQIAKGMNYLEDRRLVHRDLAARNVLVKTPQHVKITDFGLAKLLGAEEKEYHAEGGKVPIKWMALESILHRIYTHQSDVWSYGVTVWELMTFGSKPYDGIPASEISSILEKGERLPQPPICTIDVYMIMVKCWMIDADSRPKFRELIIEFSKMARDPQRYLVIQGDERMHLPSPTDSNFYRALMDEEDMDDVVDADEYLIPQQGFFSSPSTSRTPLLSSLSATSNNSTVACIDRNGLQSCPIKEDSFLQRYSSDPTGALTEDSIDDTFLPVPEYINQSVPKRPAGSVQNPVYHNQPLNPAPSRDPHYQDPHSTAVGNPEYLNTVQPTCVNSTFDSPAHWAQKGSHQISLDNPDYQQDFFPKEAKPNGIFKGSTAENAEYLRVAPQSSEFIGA
As to the kind of experiment: Western blotting of total and phosphorylated EGFR after PDT, AG1478 and the combination. The class given is cell-based. As to the method:
as §1
At indicated times after light exposure the cell-medium was removed and cells were incubated for 2 minutes with 100 ng/ml EGF. Cells were then placed on ice and the sample preparation was performed as described before (Weyergang et al., 2007, Biochem. Pharmacol., 74, p226-235). The same amount of lysed cells from each sample, as measured by the absorption of nucleic acids at 260 nm, was subjected to gel electrophoresis on 12% SDS/polyacrylamide gels and blotted to Hybond-P PVDF membranes (Amersham Biosciences, Amersham Place, UK). Immunodetection was carried out using antibodies from Cell Signal Technology (Cell Signalling Technology Beverly, Mass.); EGFR antibody (#2232), Phospho-EGFR antibody (#2236), Anti-mouse IgG, HRP-linked Antibody (#7076) Anti-rabbit IgG, HRP-linked Antibody (#7074). ECL Plus Western blotting Detection Reagents, STORM and Image Quant from GE Healthcare (GE Healthcare, Amersham Place, UK) was used to detect protein bands on the membrane.
Background: A western blot detects proteins with antibodies after separation by electrophoresis.

The test system of data set [2] is multi-drug resistant NCI-ADR-RES cancer cell line. As to the kind of experiment: CellTiter-Blue cell survival after PCI (TPCS2a, LumiSource illumination) with TKI, NCI-ADR-RES. The class given is cell-based. As to conditions: for IC50: Homo sapiens, NCI/ADR-RES, read-out: nilotinib dose needed to achieve 50% cell killing. As to the method: TPCS2a was diluted into growth medium at 0.4 μg/ml (NCI-H460) or 0.8 μg/ml (NCI-ADR-RES) and 25 μl was added to each test well (final assay concentrations 0.2 μg/ml and 0.4 μg/ml, respectively).
The plates were washed 6 times with 50 μl wash buffer using an EMBLA 384-well plate washer.
The plates were washed as before.
In general terms: The colour change of resazurin is a common sign of viable cells or microbes.

The conditions of data set [3]: at typical therapeutic doses per patient per day; cited from earlier work.
In data set [4] the test system is NCI-H460 human lung cancer cell line. Description: CellTiter-Blue cell survival after PCI (TPCS2a, LumiSource illumination) with TKI, NCI-H460. As to conditions: for IC50: Homo sapiens, read-out: nilotinib dose needed to achieve 50% cell killing.
The test system of data set [5] is A431 human epithelial carcinoma cell line. As to the kind of experiment: Cell survival by Coulter Counter after TPCS2a photochemical treatment and imatinib (Example 1). Type of data set: cell-based. As to the method:
Cells from the A431 human epithelial carcinoma cell line (75,000 cells/well, 1.5 mL/well) were seeded into 6-well plates (Nunc, Denmark), incubated for 5 hours, then 0.1 μg/mL TPCS2a was added and the cells were further incubated for 18 h (5% v/v CO2, 37° C. in DMEM medium with penicillin 100 U/mL, Glutamine 2 mM, Streptomycin 100 μg/mL). The cells were washed twice with medium (1 mL/well), incubated for 4 hours (37° C., 5% v/v CO2) in serum-containing medium and illuminated for 1, 2 or 4 minutes as shown in FIG. 2.
The cells were washed twice with Trypsin EDTA (200 μL/well) and incubated for 5 minutes (400 μL/well), then 1.5 mL medium was added and the mixture transferred to 10 mL tubes and centrifuged for 3 minutes at 1000 rpm. After removing the medium, 1 mL PBS (Phosphate Buffered Saline) was added and the solution mixed thoroughly. 750 μL was transferred to a beaker with 20 mL PBS and the amount of viable cells was determined with a Coulter Counter apparatus.

In the next data set the test system is A431 cells. Description: Cell survival by MTT assay after TPCS2a photochemical treatment and imatinib (Example 2). To be noted: imatinib up to 25 μM. The class given is cell-based, human. As to the method:
A431 cells (2500 cells/well, 100 μL/well) were seeded into 96-well plates (Nunc, Denmark) and incubated for 5 hours, then 0.1 μg/mL TPCS2a was added and incubated for 18 h (5% v/v CO2, 37° C., DMEM medium with penicillin 100 U/mL, Glutamine 2 mM, Streptomycin 100 μg/mL). […] After a further 72 hours incubation, cell survival was measured by the MTT assay.
The MTT method is based on reduction of a water-soluble tetrazolium salt (MTT) to a purple, insoluble formazan product by mitochondrial dehydrogenases present in living, metabolically active cells. 100 μL medium containing 0.25 μg MTT was added to the cells, followed by 1 h and 30 min of incubation (37° C., 5% v/v CO2). The resulting formazan crystals were dissolved by adding 100 μl DMSO (Sigma, Mo., USA) per well. The 96 well plate was read by a Multiscan EX micro plate reader (Labsystems, Finland) with a 570 nm band pass filter.
On the technique in general: Tetrazolium assays rely on reduction of a dye to a coloured formazan, in cell work by metabolically active cells.

On to `COc1cc2ncnc(Nc3cccc(Cl)c3)c2cc1OC` [AG1478, Tyrphostin AG1478], for which the “synergy/antagonism value F” value is on record as 0.18±0.09 in data set [1] (4 uM AG1478 with PDT) and 0.17±0.08 in data set [1] (5 uM AG1478 with PDT). The “average survival fraction, TKI treatment only” value in data set [1] (AG1478 72 hrs, mean of three independent experiments (FIG. 6: 4 and 5 μM TKI)) came to 0.41. The “average survival fraction, two treatments combined” value in data set [1] (AG1478 administrated directly after light exposure (PDT), mean of three independent experiments) was 0.16. Further, the “synergy/antagonism value F, mean and st. error” value in data set [1] (AG1478 between 1 and 5 μM with PDT, p=0.005) was 0.15 ± 0.05. For the same compound, the “synergy/antagonism parameter F of the experiments” value in data set [1] (AG1478 with PDT, three independent experiments) is “positive and statistically significant from 0”. Moreover, in data set [1] (SFPDT×SFTKI), the “calculated additive effect of the two treatments (SFadd)” value is 0.24. In addition, at EGFR (4 μM AG1478 alone, 1-4 hrs, A-431 cells), the EGFR phosphorylation entry was “strong attenuation of EGFR phosphorylation”. Also, the “EGFR phosphorylation, combination therapy” value on EGFR (PDT (LD50) and AG1478, A-431 cells) is given as “same decrease in EGFR phosphorylation as that observed with the AG1478 treatment alone”.

As for `O=S(=O)(O)c1ccc(-c2c3nc(c(-c4ccc(S(=O)(=O)O)cc4)c4ccc([nH]4)c(-c4ccccc4)c4nc(c(-c5ccccc5)c5ccc2[nH]5)C=C4)C=C3)cc1` [PDT, meso-tetraphenylporphine with two sulfonate groups on adjacent phenyl rings], in data set [1] (TPPS2a 0.1 ug/ml and blue light, mean of three independent experiments), the “average survival fraction, PDT treatment only” value is listed as 0.61. Also, at EGFR (1-4 hrs after PDT with LD50, A-431 cells), the “phosphorylated EGFR after PDT alone” value is recorded as “No decrease in phosphorylated EGFR was observed”. In addition, on EGFR (measured 1 hour after PDT, doses reducing relative viability up to 10% of untreated, A-431 cells), the “phospho-EGFR after PDT alone” value is listed as “did not result in a pronounced reduction”.

As to `C#Cc1cccc(Nc2ncnc3cc(OCCOC)c(OCCOC)cc23)c1` [erlotinib], the “erlotinib dose at which 20% cell killing was achieved” value in data set [2] (2 min illumination, TPCS2a 0.4 μg/ml) is reported as “about 100 μM”; in data set [2] (3 min illumination, TPCS2a 0.4 μg/ml), “about 100 μM”; in data set [2] (4 min illumination, TPCS2a 0.4 μg/ml), “about 10 μM”. The typical blood concentrations in data set [3] was 1 to 10 µM. Besides, the “erlotinib dose needed to induce 30% cell killing” value in data set [4] (2 min illumination, TPCS2a 0.2 μg/ml) was determined as 14 µM; in data set [4] (3 min illumination, TPCS2a 0.2 μg/ml), 4 µM; in data set [4] (no illumination), 43 µM. Besides, the “potentiation of the effect by photochemical internalisation” value in data set [4] (erlotinib, NCI-H460, 3 min versus no illumination) was found to be 10 times.

Turning to `Cc1ccc(NC(=O)c2ccc(CN3CCN(C)CC3)cc2)cc1Nc1nccc(-c2cccnc2)n1` [imatinib], the “cytotoxicity versus photochemical treatment alone” value in data set [5] (imatinib 5×10^-6 M, TPCS2a 0.1 μg/mL, illuminated 1, 2 or 4 minutes, 72 hour incubation) was “substantially higher cytotoxicity”. Besides, in data set [5] (imatinib 5×10^-6 M, without illumination, TPCS2a-treated A431 cells, 72 hour incubation), the “effect on cell survival” value is given as “no significant effect on cell survival”. Further, in the data set on A431 cells (0 s illumination, 72 hours), the “cytotoxicity of imatinib alone” value was “only modest cytotoxicity even at the highest dose”. The “cytotoxic effect with illumination” value in the data set on A431 cells (TPCS2a 0.1 μg/mL, 60 or 120 s illumination, corrected for photochemical treatment alone) is “illumination increased the cytotoxic effect of imatinib in a light dose-dependent manner”.

Consider `Cc1cn(-c2cc(NC(=O)c3ccc(C)c(Nc4nccc(-c5cccnc5)n4)c3)cc(C(F)(F)F)c2)cn1` [nilotinib], for which the IC50 in data set [2] (0 h, 0 min illumination) is around 20 µM; in data set [2] (4 min, 4 min illumination, TPCS2a 0.4 μg/ml), around 10 µM; in data set [4] (NCI-H460, 0 h), 6 µM; in data set [4] (NCI-H460, 5 min), around 1.7 µM. The typical blood concentrations in data set [3] was 1 to 5 µM.

Regarding “tetraphenyl chlorin disulfonate [TPCS2a]”, in data set [5] (TPCS2a 0.1 μg/mL, illuminated 1, 2 or 4 minutes, no imatinib), the “cell survival, illumination alone” value was “cell survival decreases with increasing illumination time in a dose-dependent manner”.
